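Compound exposure: 48 hours, 5 concentrations, 96-well plates. At the GI50, growth is halved.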 Activity calls are given as the source filed them. No stated cut-off is given here; in the data, active = GI50 up to about 1.1 µM and inactive = higher. A value given as a limit tells only on which side of the number the result lay.

Test systems include BT-549; DLD-1; DMS-273; KM-20L2; LXFL 529; XF498; HOP-18; M19-MEL; RXF 631.
Assay in all cases: NCI anticancer screen, dose series, 48 h

With `CCC1c2[nH]c3ccccc3c2C[C@H]2C(=O)NC(CCC(=O)OC(C)(C)C)C(=O)N12` (some centres not stated), in the experiment on BT-549, the GI50 is 53.3 µM (inactive).

On to `COC(=O)C1=C(C(=O)OC)SC2(S1)C(C(=O)OC)=C(C(=O)OC)Sc1c2ssc1=O`, for which, in the experiment with BT-549, the GI50 was 1.5 µM (inactive).

Take `N#Cc1c(-c2ccccc2)c(/C=N/c2ccc(Cl)cc2)c(=O)n2c1[nH]c1ccccc12`: the GI50 in the experiment on BT-549 is > 100 µM (inactive).

Turning to `NNC(=O)c1nnn(CCc2ccccc2)c1C(=O)NN`, the GI50 with BT-549 was > 100 µM (inactive).

As for `C=C(C)C12CC3CC/C(=N/O)C(C1)C3(N1CCOCC1)C/C2=N/O` (configuration not stated), the GI50 with BT-549 was > 100 µM (inactive).

Regarding `COc1cc(/C=N\c2nc(-c3ccc(NS(=O)(=O)c4ccc(Cl)c(OC)c4)cc3)cs2)ccc1O`, in the experiment on BT-549, the GI50 is 28.8 µM (inactive).

Take `Cc1cc(N(CCC#N)S(=O)(=O)c2ccccc2)ccc1/C=C1N=C(/C=C/c2ccccc2)OC\1=O`: the GI50 was > 100 µM (inactive) in the experiment on DLD-1; > 100 µM (inactive) in the experiment with DMS-273; > 100 µM (inactive) with KM-20L2; 87.3 µM (inactive) in the experiment with LXFL 529; > 100 µM (inactive) with XF498.

Turning to `O=C1C(Br)=C(C2=CC(=P(c3ccccc3)(c3ccccc3)c3ccccc3)C=C2)C(=O)C(Br)=C1C1=CC(=P(c2ccccc2)(c2ccccc2)c2ccccc2)C=C1`, the GI50 in the experiment on BT-549 is > 100 µM (inactive).

Take `O=P(Nc1ccccc1)(Oc1ccccc1)N1CCN(c2ccccc2)CC1` (configuration not stated): the GI50 in the experiment on BT-549 is 16 µM (inactive).

For the compound `CC(C)(NC(=O)OCc1ccccc1)C(=O)OC(=O)C(C)(C)NC(=O)OCc1ccccc1`, in the experiment with BT-549, the GI50 was > 100 µM (inactive).

For `O=C(NC12CC3CC(CC(C3)C1)C2)C(=O)c1c[nH]c2ccc([N+](=O)[O-])cc12`, the GI50 in the experiment on DMS-273 was 5.66 µM (inactive); with HOP-18, 28.6 µM (inactive); in the experiment on KM-20L2 it was 36.5 µM (inactive); in the experiment on LXFL 529, 20.2 µM (inactive); with M19-MEL it was 60 µM (inactive); in the experiment with XF498 it was 18.2 µM (inactive).

Take `CC(N/N=N/c1ccc(-c2nc3ccccc3[nH]2)cc1)C(=O)O` (configuration not stated): in the experiment on BT-549, the GI50 was 3.73 µM (inactive).

Turning to `O=C(Cc1ccc(Cl)c(Cl)c1)N(CCc1ccc(Cl)c(Cl)c1)CCN1CCCC1`, the GI50 with BT-549 was 2.63 µM (inactive).

Take `Nc1c(O)c(C(=O)O)cc2ccccc12`: the GI50 with BT-549 was 21.3 µM (inactive).

Consider `COc1ccc(C(O)c2ccc3c(c2)OCO3)cc1` (configuration not stated), for which, in the experiment with BT-549, the GI50 is > 100 µM (inactive).

Consider `COc1cc(-c2cccs2)sc1-c1cccs1`, for which the GI50 is 8.17 µM (inactive) with DLD-1; 12.5 µM (inactive) with DMS-273; 1.58 µM (inactive) in the experiment on HOP-18; 26.7 µM (inactive) in the experiment on KM-20L2; 45 µM (inactive) with LXFL 529; 32.8 µM (inactive) in the experiment on M19-MEL.

With `CC(=O)OCc1cc(OC(C)=O)c2cc3c(OC(C)=O)cccc3c(OC(C)=O)c2c1`, the GI50 in the experiment on BT-549 is 20.1 µM (inactive).

Take `Cc1cc(=O)nc(Sc2ccc([N+](=O)[O-])cc2[N+](=O)[O-])[nH]1`: in the experiment on BT-549, the GI50 was 12.8 µM (inactive).

As to `COc1ccc(/C=C2\C(=O)N(C(=O)c3ccc(NC(C)=O)cc3)N=C2C)cc1OC`, the GI50 in the experiment on DLD-1 is > 100 µM (inactive); in the experiment on DMS-273, > 100 µM (inactive); with HOP-18 it was 14.6 µM (inactive); in the experiment on M19-MEL it was > 100 µM (inactive); with XF498 it was > 100 µM (inactive).

Take `O=C(Nc1nnn[nH]1)c1nc(O)cc(-c2ccccc2)n1`: the GI50 in the experiment with DLD-1, in the experiment with KM-20L2, in the experiment with LXFL 529, in the experiment on M19-MEL and with XF498 was > 100 µM (inactive) each time.

Take `O=C1C(NS(=O)(=O)c2ccccc2)=C(n2cnc3ccccc32)C(=O)c2ccccc21`: the GI50 in the experiment with BT-549 is 4.66 µM (inactive).

As to `O=[N+]([O-])c1nccn1COCCBr`, the GI50 with DLD-1, in the experiment on KM-20L2, with LXFL 529, in the experiment with M19-MEL and with XF498 was > 100 µM (inactive) in each case.

As to `COc1ccccc1C1SCC(=O)N1c1ccc(-n2c(-c3ccccc3)nc3ccccc3c2=O)cc1` (configuration not stated), in the experiment with BT-549, the GI50 is > 100 µM (inactive).

Turning to `S=c1sc2c(Cl)nc(Cl)nc2n1-c1ccccc1`, the GI50 in the experiment with DLD-1 was 16.2 µM (inactive); in the experiment on DMS-273, 45.9 µM (inactive); in the experiment on HOP-18, > 100 µM (inactive); with KM-20L2 it was 52.6 µM (inactive); in the experiment with LXFL 529 it was 17.9 µM (inactive); with M19-MEL, 16.4 µM (inactive). Besides, the GI50 in the experiment on XF498 is 94.2 µM (inactive).

`CCN1CC2=C(NC(=S)NC2c2ccc(Cl)cc2)/C(=C/c2ccc(Cl)cc2)C1` (configuration not stated): the GI50 in the experiment on BT-549 was > 100 µM (inactive).

As to `Nc1ncc(CN2CCCC2)c(-c2ccccc2O)n1`, the GI50 is > 750 µM (inactive) with DLD-1; > 750 µM (inactive) with DMS-273; 433 µM (inactive) with HOP-18; > 750 µM (inactive) with KM-20L2; > 750 µM (inactive) in the experiment with LXFL 529; > 750 µM (inactive) in the experiment with M19-MEL. Besides, the GI50 in the experiment on XF498 was > 750 µM (inactive).

Turning to `CCOC(=O)C1(Cc2ccccc2)CCCCCN1` (configuration not stated), the GI50 in the experiment with DLD-1, in the experiment on DMS-273, in the experiment on HOP-18, in the experiment on KM-20L2, in the experiment with LXFL 529 and in the experiment on M19-MEL was > 100 µM (inactive) each time. The GI50 in the experiment on RXF 631 is > 100 µM (inactive).

Turning to `CSC1=C(C(=O)Nc2ccc(Cl)cc2)C(N)=NC1=O`, the GI50 with BT-549 was > 100 µM (inactive).

Regarding `C=C1CC2(CC(c3ccccc3OC)OC(c3ccccc3OC)C2)OC1=O` (configuration not stated), the GI50 in the experiment on BT-549 was 1.64 µM (inactive).

Turning to `c1sc(NC2=NCCO2)c2c1CCCC2`, the GI50 with BT-549 is > 100 µM (inactive).

Turning to `O=C(c1ccncc1)C1C(=O)c2ccccc2C1C1(O)c2ccccc2CC1C(O)c1ccncc1` (configuration not stated), the GI50 in the experiment with BT-549 was 45.9 µM (inactive).

In the case of `C=C1CC2CC(O)CC(C1)C2` (configuration not stated), the GI50 in the experiment on DLD-1, with DMS-273, in the experiment with HOP-18, with KM-20L2, with LXFL 529 and in the experiment on M19-MEL was > 100 µM (inactive) in each case. In addition, in the experiment on XF498, the GI50 was > 100 µM (inactive).

Regarding `O=C(COc1ccc(OCC(=O)N/N=C/c2ccc(-c3ccc(Cl)cc3Cl)o2)c(Cl)c1)N/N=C/c1ccc(-c2ccc(Cl)cc2Cl)o1`, the GI50 in the experiment on BT-549 is 83.9 µM (inactive).

Regarding `CC(C)=C1C(=O)C[C@]2(C)C/C=C(\C)CC/C=C(\C)CC[C@@H]12`, the GI50 in the experiment with BT-549 is 10.9 µM (inactive).

In the case of `Cc1cccc2c1C(=O)OC2(C)c1cccc2ccccc12` (configuration not stated), the GI50 was 30.5 µM (inactive) in the experiment with DLD-1; > 100 µM (inactive) with HOP-18; 24.4 µM (inactive) in the experiment with KM-20L2; 50 µM (inactive) in the experiment on M19-MEL; 4.86 µM (inactive) in the experiment with XF498.

In the case of `CC(C)c1ccccc1NC(=O)/C(Cl)=C1/Sc2ccccc2NC1=O`, the GI50 in the experiment with DLD-1 is 35.5 µM (inactive); in the experiment on KM-20L2, 24.2 µM (inactive); in the experiment with LXFL 529, 14.5 µM (inactive); in the experiment with M19-MEL, 34 µM (inactive); in the experiment on RXF 631, 34 µM (inactive).

Turning to `Cc1cc2c(cc1N)C(C)C1(CCC(=O)N2Cc2ccccc2)OCCO1` (configuration not stated), the GI50 with BT-549 is > 100 µM (inactive).

With `CC(C)COC(=O)N1N=NC2C3OC(CC3=O)C21` (configuration not stated), the GI50 with DLD-1, in the experiment with DMS-273, with HOP-18, in the experiment on KM-20L2, in the experiment on LXFL 529 and with M19-MEL was > 100 µM (inactive) in each case. Moreover, the GI50 in the experiment with XF498 is > 100 µM (inactive).

In the case of `O=S(=O)(Oc1ccc2oc3ccccc3c2c1-c1c(OS(=O)(=O)C(F)(F)F)ccc2oc3ccccc3c12)C(F)(F)F`, the GI50 in the experiment on BT-549 is > 100 µM (inactive).

Take `N#CCCN(CCC#N)c1ccc(/C=C2\N=C(c3ccccc3)N(c3ccc(Cl)cc3)C2=O)cc1`: the GI50 with BT-549 is > 100 µM (inactive).

For `O=C1c2ccccc2C(=O)N1C(=S)c1ccccc1`, the GI50 in the experiment on BT-549 was > 100 µM (inactive).

Take `COc1ccc(/N=N/C(=O)NC(Cc2ccccc2)C(=O)O)cc1` (configuration not stated): in the experiment with BT-549, the GI50 is > 100 µM (inactive).

Take `C=CCN1CCC(c2cc(C(=O)OCC)[nH]c2-c2cc(C)no2)C1=O` (configuration not stated): the GI50 with BT-549 is > 100 µM (inactive).

Take `CC[C@@H]1CSC(/C=C/C2OC3OC(C)(C)OC3C3OC(C)(C)OC23)=N1` (some centres not stated): in the experiment on BT-549, the GI50 is 3.58 µM (inactive).

Turning to `Nc1nc(N)c2ncn(CCCC(c3ccccc3)P(=O)(O)O)c2n1` (configuration not stated), the GI50 with DLD-1, in the experiment with DMS-273, in the experiment with HOP-18, with KM-20L2, in the experiment on LXFL 529 and in the experiment on M19-MEL was > 100 µM (inactive) throughout.

For the compound `CC(=O)C1C(=O)C(=O)N(c2ccccc2)C1=O` (configuration not stated), the GI50 with BT-549 was > 100 µM (inactive).

Turning to `O=C(O)CNC(=O)c1c2ccccc2nc2ccccc12`, in the experiment with BT-549, the GI50 is 20.8 µM (inactive).

With `Cc1c2cc[n+](C)c(C)c2cc2c1[nH]c1ccccc12`, the GI50 in the experiment with BT-549 is 2.44 µM (inactive); in the experiment on DLD-1, 10.5 µM (inactive); in the experiment on DMS-273 it was 3.63 µM (inactive); with HOP-18 it was 0.586 µM (active); in the experiment on KM-20L2, 4.99 µM (inactive); with M19-MEL, 3.44 µM (inactive).

With `COc1cc2c(NCCCCCO)ncnc2c(OC)c1OC`, in the experiment on BT-549, the GI50 was > 100 µM (inactive).

As for `CC1(C)CC2=NC(SSC3=C(C#N)C(c4ccc(Br)cc4)C4=C(O)CC(C)(C)CC4=N3)=C(C#N)C(c3ccc(Br)cc3)C2=C(O)C1` (configuration not stated), in the experiment on BT-549, the GI50 is > 100 µM (inactive).

On to `CCOC(=O)C1=C(C)C2C=C(c3cccs3)CC(c3ccc(Cl)cc3)=C2OC1=O` (configuration not stated), for which the GI50 with BT-549 was 31.5 µM (inactive).

For the compound `CN1CCCCC1CCN1c2ccccc2Sc2ccc([S+](C)[O-])cc21` (configuration not stated) [MESORIDAZINE], the GI50 with BT-549 is > 100 µM (inactive).

For the compound `CC(=O)O[C@H]1C(=O)[C@@]2(C)[C@H]([C@H](OC(=O)c3ccccc3)[C@]3(O)C[C@H](OC(=O)[C@H](O)[C@@H](NC(=O)c4ccccc4)c4ccccc4)C(C)=C1C3(C)C)[C@]1(OC(C)=O)CO[C@@H]1C[C@@H]2O` [PACLITAXEL], the GI50 in the experiment on BT-549 is 0.0327 µM (active); in the experiment with DLD-1, 0.0448 µM (active); with DMS-273, 0.00313 µM (active); with HOP-18 it was 0.157 µM (active); in the experiment on LXFL 529, 0.528 µM (active); in the experiment on XF498, 0.00348 µM (active).
